Source: patent US20260294915A1, “COMBINATION THERAPY COMPRISING A MAT2A INHIBITOR AND A TOPOISOMERASE INHIBITOR, A SPLICING INHIBITOR SULFONAMIDE, OR A KIF18 INHIBITOR” (IDEAYA BIOSCIENCES, INC., priority 2023, published 2026)
Marks after values point to notes of the source that are not given here.

Key:
Test in all cases: 10-day proliferation (CTG), SPLAM titration + 1000 nM Compound A, Bliss (Example 5; Tables 12-19)
Assay type in all cases: cell-based
Design in all cases: key: GDI scale -100 to 100; 0 = cell number at T0; <0 cytotoxic
[1] = test system: SW900; details: for GDI (growth death index), single agent Cmpd A: SW900, 1000 nM Compound A; for GDI: alone or + 1 uM Cmpd A
Procedure: (§1) Synergy was measured across the Indisulam titration with 1000 nM Compound A by Bliss Independence analysis. Bliss scores >10 are indicated by “*” and are considered synergistic. […] Synergy as reported using Bliss may be underrepresented within cytotoxic dose ranges. Growth death index values are shown for the combination titration and each single agent Compound A (Cmpd A) and Indisulam on a scale of −100 to 100 with the midpoint (0) being the number of cells at the beginning of the combination (T0). Scores less than 0 are indicated with “**” and are representative of a cytotoxic response. Bliss and GDI values are shown for five MTAP-deficient cell lines: NCI-1H838 (12A), SW900 (12B), RT112/84 (12C), UMUC5 (121D), and UMUC11 (12E).
(§2) A 10-day proliferation assay was performed in a panel of 5 MTAP-deficient and 2 wild type non-small cell lung and bladder cancer cell lines. Optimal cell seeding for all cell lines was determined by assessing the growth over a range of seeding densities in a 384-well format to identify conditions that permitted proliferation for 10 days. Cells were then plated at the optimal seeding density and treated with 20-point, two-fold dilution series of each of four structurally different SPLAMs in combination with a 1000 nM fixed concentration of Compound A. Single agent titrations for Compound A and each SPLAM were included for comparison. Concentrations tested for each SPLAM alone or in combination ranged from 0.04 nM to 20,000 nM. A plate of cells was harvested at the time of compound addition to quantify the number of cells at the start of the combination (T0). For cell quantification, the harvested cells were lysed with Promega CellTiter-Glo (CTG) reagent according to the manufacturer's protocol and the chemiluminescent signal was detected as described in Example 1 above. Cells were incubated with the drug combinations at 37° C. with 5% CO2 for 10 days. Cells were then lysed with CTG and the chemiluminescent signal was measured.
(§3) CTG values obtained after the 10-day treatment were background subtracted and expressed as a percent of the T0 value set at 100%. Data were plotted against compound concentration and fit with a four-parameter equation to generate single agent dose response curves. Percent inhibition was determined for each combination and single agent concentration compared to a DMSO control. In addition, the overall net growth or death of the cells was calculated and reported as a growth death index (GDI) value on a scale of −100 to 100 with the midpoint (0) being the number of cells at the beginning of the combination (T0).
(§4) Predicted inhibition was calculated using (Ea+Eb)−(Ea*Eb) where E equals the effect (inhibition) of each single agent (a and b). A difference between the observed inhibition percentage and the predicted inhibition percentage greater than 10% was considered synergistic. A Bliss score was only reported for combinations eliciting >20% growth inhibition (GDI value <80). Since Bliss is calculated based on growth inhibition, scores within cytotoxic dose ranges may not accurately reflect synergistic cytoxicity.
(§5) Synergy was measured across the E7820 titration with 1000 nM Compound A by Bliss Independence analysis. Bliss scores >10 are indicated by “*” and are considered synergistic. […] Synergy as reported using Bliss may be underrepresented within cytotoxic dose ranges. Growth death index values are shown for the combination titration and each single agent Compound A (Cmpd A) and Indisulam on a scale of −100 to 100 with the midpoint (0) being the number of cells at the beginning of the combination (T0). Scores less than 0 are indicated by “**” and are representative of a cytotoxic response. Bliss and GDI values are shown for five MTAP-deficient cell lines: NCI-1H838 (14A), SW900 (14B), RT112/84 (14C), UMUC5 (141)), and UMUC11 (14E).
(§6) Synergy was measured across the Chloroquinoxaline Sulfonamide titration with 1000 nM Compound A by Bliss Independence analysis.

[2] = test system: UMUC5; details: for GDI (growth death index), single agent Cmpd A: UMUC5, 1000 nM Compound A
Procedure: as §1, §2, §3, §4, §5, §6

[3] = test system: UMUC11; details: for GDI (growth death index), single agent Cmpd A: UMUC11, 1000 nM Compound A
Procedure: as §1, §2, §3, §4, §5, §6

[4] = test system: NCI-H838
Procedure: as §1, §2, §3, §4, §5, §6

[5] = SPLAM 0.04 nM, alone or + 1 uM Cmpd A
[6] = SPLAM 0.1 nM, alone or + 1 uM Cmpd A
[7] = SPLAM 0.2 nM, alone or + 1 uM Cmpd A
[8] = SPLAM 0.3 nM, alone or + 1 uM Cmpd A
[9] = SPLAM 0.6 nM, alone or + 1 uM Cmpd A
[10] = SPLAM 1.2 nM, alone or + 1 uM Cmpd A
[11] = SPLAM 2.4 nM, alone or + 1 uM Cmpd A
[12] = SPLAM 4.9 nM, alone or + 1 uM Cmpd A
[13] = SPLAM 9.8 nM, alone or + 1 uM Cmpd A
[14] = SPLAM 19.5 nM, alone or + 1 uM Cmpd A
[15] = SPLAM 39.1 nM, alone or + 1 uM Cmpd A
[16] = SPLAM 78.1 nM, alone or + 1 uM Cmpd A
[17] = SPLAM 156.3 nM, alone or + 1 uM Cmpd A
[18] = SPLAM 312.5 nM, alone or + 1 uM Cmpd A
[19] = SPLAM 625 nM, alone or + 1 uM Cmpd A
[20] = SPLAM 1250 nM, alone or + 1 uM Cmpd A
[21] = SPLAM 2500 nM, alone or + 1 uM Cmpd A
[22] = SPLAM 5000 nM, alone or + 1 uM Cmpd A
[23] = SPLAM 10000 nM, alone or + 1 uM Cmpd A
[24] = SPLAM 20000 nM, alone or + 1 uM Cmpd A

Nc1nc(=O)n(-c2ccccc2Cl)c2nc(C(F)(F)F)ccc12 [Compound A]
GDI (growth death index), single agent Cmpd A ([1]; Table 16B): 100 | GDI (growth death index), single agent Cmpd A ([1]; Table 18B): 100 | GDI (growth death index), single agent Cmpd A ([2]; Table 16D): 58 | GDI (growth death index), single agent Cmpd A ([2]; Table 18D): 58 | GDI ([2]; single agent Cmpd A, 1000 nM): 58 | GDI (growth death index), single agent Cmpd A ([3]; Table 16E): 100 | GDI (growth death index), single agent Cmpd A ([3]; Table 18E): 100 | GDI ([3]; single agent Cmpd A, 1000 nM): 100 | GDI (growth death index), single agent Cmpd A ([4]; NCI-H838, 1000 nM Compound A, Table 18A): 49 | GDI ([4]; single agent Cmpd A, 1000 nM): 49

NS(=O)(=O)c1ccc(S(=O)(=O)Nc2cccc3c(Cl)c[nH]c23)cc1 [Indisulam, N-(3-chloro-1H-indol-7-yl)benzene-1,4-disulfonamide]
GDI ([1]; SPLAM 0.04 nM): 100 | GDI ([1]; SPLAM 0.1 nM): 98 | GDI ([1]; SPLAM 0.2 nM): 94 | GDI ([1]; SPLAM 0.3 nM): 100 | GDI ([1]; SPLAM 0.6 nM): 100 | GDI ([1]; SPLAM 1.2 nM): 100 | GDI ([1]; SPLAM 2.4 nM): 100 | GDI ([1]; SPLAM 4.9 nM): 100 | GDI ([1]; SPLAM 9.8 nM): 100 | GDI ([1]; SPLAM 19.5 nM): 100 | GDI ([1]; SPLAM 39.1 nM): 100 | GDI ([1]; SPLAM 78.1 nM): 100 | GDI ([1]; SPLAM 156.3 nM): 100 | GDI ([1]; SPLAM 312.5 nM): 34 | GDI ([1]; SPLAM 625 nM): −3** | GDI ([1]; SPLAM 1250 nM): −33** | GDI ([1]; SPLAM 2500 nM): −61** | GDI ([1]; SPLAM 5000 nM): −56** | GDI ([1]; SPLAM 10000 nM): −58** | GDI ([1]; SPLAM 20000 nM): −60** | GDI [2, 5]: 100 | GDI [2, 6]: 100 | GDI [2, 7]: 100 | GDI [2, 8]: 100 | GDI [2, 9]: 100 | GDI [2, 10]: 98 | GDI [2, 11]: 100 | GDI [2, 12]: 100 | GDI [2, 13]: 100 | GDI [2, 14]: 100 | GDI [2, 15]: 100 | GDI [2, 16]: 100 | GDI [2, 17]: 94 | GDI [2, 18]: 69 | GDI [2, 19]: 26 | GDI [2, 20]: 5 | GDI [2, 21]: 3 | GDI [2, 22]: 3 | GDI [2, 23]: 2 | GDI [2, 24]: 2 | GDI [3, 5]: 100 | GDI [3, 6]: 100 | GDI [3, 7]: 100 | GDI [3, 8]: 100 | GDI [3, 9]: 100 | GDI [3, 10]: 100 | GDI [3, 11]: 100 | GDI [3, 12]: 100 | GDI [3, 13]: 100 | GDI [3, 14]: 100 | GDI [3, 15]: 100 | GDI [3, 16]: 100 | GDI [3, 17]: 100 | GDI [3, 18]: 73 | GDI [3, 19]: 35 | GDI [3, 20]: 13 | GDI [3, 21]: 5 | GDI [3, 22]: 2 | GDI [3, 23]: 2 | GDI [3, 24]: 1 | GDI [4, 5]: 100 | GDI [4, 6]: 100 | GDI [4, 7]: 100 | GDI [4, 8]: 100 | GDI [4, 9]: 100 | GDI [4, 10]: 100 | GDI [4, 11]: 100 | GDI [4, 12]: 100 | GDI [4, 13]: 100 | GDI [4, 14]: 100 | GDI [4, 15]: 100 | GDI [4, 16]: 100 | GDI [4, 17]: 100 | GDI [4, 18]: 54 | GDI [4, 19]: 11 | GDI [4, 20]: 2 | GDI [4, 21]: 1 | GDI [4, 22]: −13** | GDI [4, 23]: −50** | GDI [4, 24]: −52**

Cc1ccc(NS(=O)(=O)c2cccc(C#N)c2)c2[nH]cc(C#N)c12 [Compound E7820, 3-cyano-N-(3-cyano-4-methyl-1H-indol-7-yl)benzenesulfonamide]
GDI ([1]; SPLAM 0.04 nM): 97 | GDI ([1]; SPLAM 0.1 nM): 100 | GDI ([1]; SPLAM 0.2 nM): 99 | GDI ([1]; SPLAM 0.3 nM): 100 | GDI ([1]; SPLAM 0.6 nM): 100 | GDI ([1]; SPLAM 1.2 nM): 100 | GDI ([1]; SPLAM 2.4 nM): 100 | GDI ([1]; SPLAM 4.9 nM): 100 | GDI ([1]; SPLAM 9.8 nM): 100 | GDI ([1]; SPLAM 19.5 nM): 100 | GDI ([1]; SPLAM 39.1 nM): 100 | GDI ([1]; SPLAM 78.1 nM): 100 | GDI ([1]; SPLAM 156.3 nM): 100 | GDI ([1]; SPLAM 312.5 nM): 28 | GDI ([1]; SPLAM 625 nM): −7** | GDI ([1]; SPLAM 1250 nM): −37** | GDI ([1]; SPLAM 2500 nM): −56** | GDI ([1]; SPLAM 5000 nM): −47** | GDI ([1]; SPLAM 10000 nM): −70** | GDI ([1]; SPLAM 20000 nM): −59** | GDI [2, 5]: 100 | GDI [2, 6]: 100 | GDI [2, 7]: 100 | GDI [2, 8]: 100 | GDI [2, 9]: 100 | GDI [2, 10]: 100 | GDI [2, 11]: 100 | GDI [2, 12]: 100 | GDI [2, 13]: 100 | GDI [2, 14]: 100 | GDI [2, 15]: 100 | GDI [2, 16]: 100 | GDI [2, 17]: 99 | GDI [2, 18]: 73 | GDI [2, 19]: 31 | GDI [2, 20]: 15 | GDI [2, 21]: 15 | GDI [2, 22]: 7 | GDI [2, 23]: 6 | GDI [2, 24]: 3 | GDI [3, 5]: 100 | GDI [3, 6]: 100 | GDI [3, 7]: 100 | GDI [3, 8]: 100 | GDI [3, 9]: 100 | GDI [3, 10]: 100 | GDI [3, 11]: 100 | GDI [3, 12]: 100 | GDI [3, 13]: 100 | GDI [3, 14]: 100 | GDI [3, 15]: 100 | GDI [3, 16]: 100 | GDI [3, 17]: 100 | GDI [3, 18]: 76 | GDI [3, 19]: 31 | GDI [3, 20]: 11 | GDI [3, 21]: 5 | GDI [3, 22]: 4 | GDI [3, 23]: 3 | GDI [3, 24]: 1 | GDI [4, 5]: 100 | GDI [4, 6]: 100 | GDI [4, 7]: 100 | GDI [4, 8]: 100 | GDI [4, 9]: 100 | GDI [4, 10]: 100 | GDI [4, 11]: 100 | GDI [4, 12]: 100 | GDI [4, 13]: 100 | GDI [4, 14]: 100 | GDI [4, 15]: 100 | GDI [4, 16]: 100 | GDI [4, 17]: 100 | GDI [4, 18]: 76 | GDI [4, 19]: 13 | GDI [4, 20]: 4 | GDI [4, 21]: 1 | GDI [4, 22]: −13** | GDI [4, 23]: −64** | GDI [4, 24]: −46**
